Experimental findings from patent US20120121691A1, “Method for Increasing the Production of a Specific ACYL-Chain Dihydroceramide(s) for Improving the Effectiveness of Cancer Treatments” (priority 2010, published 2012) are described below.

Series [1] relates to intracellular sphingolipids, CCRF-CEM cells. Kind of series: LC/MS/MS analysis of intracellular sphingolipids, CCRF-CEM. The series is classed as cell-based, human. Conditions: fatty acid in addition to sphinganine plus GT-11, six hours, P<0.05. As for the experimental part:
LC/MS/MS analysis of intracellular sphingolipids. Sphingolipids were separated using an Agilent 1200 HPLC (LC) and determined by ESI/MS/MS performed on a AB SCIEX 4000 QTRAP Hybrid Triple Quadrupole/Linear Ion Trap mass spectrometer (MS), operating in a multiple reaction monitoring positive ionization mode as described previously with moderate modifications (25). Briefly, 50 μL of a solution (1 μM) of internal sphingolipid standards (including -sphingosine, -sphinganine, -sphingosine-1-phosphate, and -ceramide) was added to each cell pellet sample. Lipids of each sample were extracted twice with 2 mL of the ethyl acetate/isopropyl alcohol/water (60:28:12; v:v) solvent system. Supernatants were transferred to glass tubes (Kimble Chase) and evaporated under air (10 PSI) at 40° C. After reconstitution in methanol (4 mL), 1 ml of each sample was separated for the determination of lipid phosphate. Remaining sample (3 mL) was dried and used for sphingolipid quantification. For ESI/MS/MS, the dried lipid sample was dissolved in mobile phase A. Samples were injected (10 μL) and separated on a Spectra C8SR, 150×3.0 mm, 3-μm particle size column using gradient-elution (mobile phase A/B, prepared as previously described).
Data acquisition, peak integration and analyte quantitation were performed using ABI/SCIEX Analyst 1.4.2 Software. Sphingolipid data were normalized to lipid phosphate as previously described (26). Briefly, samples were dried under air (10 PSI) and lipids were extracted using the method of Bligh and Dyer (27). Of importance for phosphate assay, only Kimble Chase disposable borosilicate tubes were used for minimal sample contamination. Organic phase was transferred to glass tubes and a known volume was separated to a new tube and dried at 80° C. Phosphate standards and dried samples were then heated with ashing buffer (water:10 N:70% [40:9:1]) at 160° C. overnight. Samples were then incubated with ammonium molybdate and ascorbic acid as previously described, and absorbance ([…]) was read using a SpectraMax.
CCRF-CEM cells were treated with drug/fatty acid vehicles (control), GT-11 (0.5 μM) alone, sphinganine (4 μM) alone or sphinganine (4 μM) plus GT-11 (0.5 μM) for six hours and subsequently prepared for sphingolipid analysis.
CCRF-CEM cells were treated with GT-11 (0.5 μM) alone, sphinganine (1 μM) alone or sphinganine (1 μM) plus GT-11 (0.5 μM) for six hours and prepared for quantitative analysis. DHCers were normalized to control and plotted as fold change (bar, z-axis). * indicates significance, with P<0.05. […] CCRF-CEM cells were treated with sphinganine (1 μM) plus GT-11 (0.5 μM) with and without specific solubilized fatty acids (carbon chain length (CX) and saturation (:X), Ex: C20:1=fatty acid with 20 carbons and one desaturation) for six hours and prepared for quantitative sphingolipid analysis. Dihydroceramides were normalized to control cells that received sphinganine plus GT-11 with no fatty acid and plotted as fold change (bar, z-axis). * indicates significance, with P<0.05.

The next series deals with LoVo colon cancer cells. Nature of the series: DIMSCAN cytotoxicity assay, LoVo. As to conditions: fatty acid 5 micromolar. The series is classed as cell-based, human. From the text: (§1) Cell culture. The pre-T acute lymphoblastic leukemia cell lines MOLT-4 and CCRF-CEM, small cell lung cancer cell line NCI-H146, non-small cell lung cancer cell line NCI-H1792, colon cancer cell lines LoVo and HT-29, and breast cancer cell line MCF-7, were purchased from American Type Culture Collection, Manassas, Va., and grown at 20%/5% and 5%/5%, respectively. COG-LL-317 and COG-LL-332 pre-T acute lymphoblastic leukemia cell lines were obtained from the TTUHSC Cancer Center Cell Repository and grown at 5%/5%. Cell line identities were verified by short tandem repeat analysis and mycoplasma testing was performed. Cell lines were maintained in RPMI-1640 medium supplemented with 10% fetal bovine serum (FBS, Invitrogen) in humidified, 37° C. incubators. For all experiments, ALL cell lines were seeded at 2. cells/mL in RPMI-1640 medium supplemented with 15% fetal bovine serum. Solid tumor cell lines were plated at 5×cells/mL in RPMI-1640 medium supplemented with 10% fetal bovine serum.
(§2) Cytotoxicity Assay. Cytoxicity is determined using the DIMSCAN assay system (R. Proffitt et al., Cytometry 24, 204-213 (1996); T. Frgala et al., Proc. AACR, 36, 303 (1995). The system employs digital imaging microscopy to quantify viable cells, which selectively accumulate fluorescein diacetate to become brightly fluorescent. The system is capable of measuring cytotoxicity over a 4-5 log dynamic range by quenching the residual fluorescence of dead and dying cells with eosin Y and quantifying the total fluorescence of viable cells using digital thresholding. Measured fluorescence is directly proportionate to the number of viable cells.
(§3) In brief, 5,000 to 25,000 cells/well depending on the cell line (5,000 for solid tumor, 25,000 for ALL cell lines) were replicate plated into 60 wells of a 96-well tissue culture plate in 0.1 cc media and allowed to attach or recover overnight. Drug(s) are then added in 0.05 cc media to the final concentrations indicated. […] Total fluorescence of viable cells is then measured by digital imaging microscopy and the signal normalized to control cells. […]

The subject of series [2] is NCI-H146 small cell lung cancer cells. Kind of series: DIMSCAN cytotoxicity assay, NCI-H146. Format: cell-based, human. As to conditions: NCI-H146, fatty acid 5 micromolar.
From the text: as §1, §2, §3

Series [3] relates to MCF-7 breast cancer cells. Kind of series: DIMSCAN cytotoxicity assay, MCF-7. Format: cell-based. As to conditions: MCF-7, fatty acid 5 micromolar.
From the text: as §1
as §2, with “cells. A comparison of the total fluorescence of a drug-treated cell population to the fluorescence of a similar number of untreated cells yields a survival fraction.” for “cells.”
(§4) In brief, 5,000 to 25,000 cells/well depending on the cell line (5,000 for solid tumor, 25,000 for ALL cell lines) were replicate plated into 60 wells of a 96-well tissue culture plate in 0.1 cc media and allowed to attach or recover overnight. […]

In series [4] the test system is NCI-H1792 non-small cell lung cancer cells. Kind of series: DIMSCAN cytotoxicity assay, NCI-H1792. Format: cell-based. As to conditions: NCI-H1792, fatty acid 5 micromolar.
From the text: as §1
as §2, with “cells. A comparison of the total fluorescence of a drug-treated cell population to the fluorescence of a similar number of untreated cells yields a survival fraction.” for “cells.”
as §4

A further series deals with MOLT-4 ALL cells. Nature of the series: DIMSCAN cytotoxicity assay, MOLT-4. The series is classed as cell-based, human. As to conditions: MOLT-4, sphinganine 1 μM, GT-11 0.5 μM, 48 hours.
From the text: as §1
as §2, with “cells. A comparison of the total fluorescence of a drug-treated cell population to the fluorescence of a similar number of untreated cells yields a survival fraction. […]” for “cells.”
(§5) The addition of C22:0-fatty acid, but not C18:0 or C22:1 fatty acids, increased cytotoxicity (FIGS. 7A-7F). […] Cytotoxicity was measured using DIMSCAN, and data was normalized to control and plotted as survival fraction (y-axis). […]

Another series has as its system COG-LL-317. Kind of series: DIMSCAN cytotoxicity assay, COG-LL-317. Format: cell-based. Conditions: COG-LL-317, sphinganine 1 μM, GT-11 0.5 μM, 48 hours.
From the text: as §1
as §2, with “cells. A comparison of the total fluorescence of a drug-treated cell population to the fluorescence of a similar number of untreated cells yields a survival fraction. […]” for “cells.”
as §5

In another series the test system is COG-LL-332. Nature of the series: DIMSCAN cytotoxicity assay, COG-LL-332. As to conditions: COG-LL-332, sphinganine 1 μM, GT-11 0.5 μM, 48 hours. Format: cell-based.
From the text: as §1
as §2, with “cells. A comparison of the total fluorescence of a drug-treated cell population to the fluorescence of a similar number of untreated cells yields a survival fraction. […]” for “cells.”
as §5

For series [5], the system named is pre-T acute lymphoblastic leukemia cell lines CCRF-CEM, MOLT-4, COG-LL-317 and COG-LL-332. Kind of series: DIMSCAN cytotoxicity assay across the four pre-T ALL cell lines. The series is classed as cell-based, human. As to conditions: COG-LL-317, COG-LL-332, CCRF-CEM, 4-HPR 0-9 μM, 48 hours.
From the text: as §1, with “For all experiments, ALL cell lines were seeded at 2. cells/mL in RPMI-1640 medium supplemented with 15% fetal bovine serum. Solid tumor cell lines were plated at 5×cells/mL in RPMI-1640 medium supplemented with 10% fetal bovine serum.” left out
as §2, with “cells. […]” for “cells.”

Molecules are shown by their SMILES.

For `CCCCCCCCCCCCCCCCCCCCCCCC(=O)O` [C24:0-fatty acid], the “increase in corresponding dihydroceramide over sphinganine plus GT-11 alone” value in series [1] is on record as “significant increases”. Besides, the “effect of fatty acid on fenretinide cytotoxicity” value (in the series on LoVo colon cancer cells; in series [2]; in series [3]; in series [4]) was “did not increase cytotoxicity” in each case.

Regarding `CCCCCCCCCCCCCCCCCC(=O)O` [C18:0-fatty acid], the “effect of fatty acid co-treatment on cytotoxicity of sphinganine with GT-11” value with MOLT-4 ALL cells, in the series with COG-LL-317 and in the series with COG-LL-332 was “not” in each case. Besides, the “effect of fatty acid on fenretinide (4-HPR) cytotoxicity” value in [5] was “not”. The “effect of fatty acid on fenretinide cytotoxicity” value (in the series on LoVo colon cancer cells; in series [2]; in series [3]; in [4]) was “did not increase cytotoxicity” each time.
